Laboratory results published in ChEMBL document CHEMBL1139786, “Anti-tubercular agents. Part IV: Synthesis and antimycobacterial evaluation of nitroheterocyclic-based 1,2,4-benzothiadiazines” (2007).
Values after ≈ are worked out from the molar mass of the structure shown.

Tests used:
Assay type in all cases: functional
[1] = system: Mycobacterium tuberculosis; test: Antibacterial activity against Mycobacterium tuberculosis H37Rv by nitrate reductase assay
[2] = system: Pseudomonas aeruginosa; test: Antibacterial activity against Pseudomonas aeruginosa MTCC 1688 by broth dilution method
[3] = system: Staphylococcus aureus; test: Antibacterial activity against Staphylococcus aureus MTCC 96 by broth dilution method
[4] = system: Bacillus subtilis; test: Antibacterial activity against Bacillus subtilis MTCC 441 by broth dilution method
[5] = system: Escherichia coli; test: Antibacterial activity against Escherichia coli MTCC 443 by broth dilution method

SMILES	MIC [1]	MIC [2]	MIC [3]	MIC [4]	MIC [5]
O=[N+]([O-])c1ccc(/C=N\NC2=NS(=O)(=O)c3ccccc3N2c2ccccc2)s1	4 µg/mL (≈ 9.36 µM)	150 µg/mL (≈ 351 µM)	37.5 µg/mL (≈ 87.7 µM)	37.5 µg/mL (≈ 87.7 µM)	18.8 µg/mL (≈ 43.9 µM)
CN1C(NNC(=O)c2ccc([N+](=O)[O-])o2)=NS(=O)(=O)c2ccccc21	32 µg/mL (≈ 87.6 µM)	150 µg/mL (≈ 411 µM)	37.5 µg/mL (≈ 103 µM)	18.8 µg/mL (≈ 51.3 µM)	18.8 µg/mL (≈ 51.3 µM)
CCN1C(NNC(=O)c2ccc([N+](=O)[O-])o2)=NS(=O)(=O)c2ccccc21	32 µg/mL (≈ 84.4 µM)	150 µg/mL (≈ 395 µM)	150 µg/mL (≈ 395 µM)	18.8 µg/mL (≈ 49.4 µM)	18.8 µg/mL (≈ 49.4 µM)
CCN1C(NNC(=O)c2ccc(-c3ccccc3[N+](=O)[O-])o2)=NS(=O)(=O)c2ccccc21	> 100 µg/mL	150 µg/mL (≈ 329 µM)	9.37 µg/mL (≈ 20.6 µM)	18.8 µg/mL (≈ 41.2 µM)	18.8 µg/mL (≈ 41.2 µM)
O=C(NNC1=NS(=O)(=O)c2ccccc2N1c1ccccc1)c1ccc(-c2ccccc2[N+](=O)[O-])o1	> 100 µg/mL	150 µg/mL (≈ 298 µM)	18.8 µg/mL (≈ 37.2 µM)	37.5 µg/mL (≈ 74.5 µM)	75 µg/mL (≈ 149 µM)
CN1C(NNC(=O)c2ccc(-c3ccccc3[N+](=O)[O-])o2)=NS(=O)(=O)c2cc(Cl)ccc21	> 100 µg/mL	150 µg/mL (≈ 315 µM)	75 µg/mL (≈ 158 µM)	37.5 µg/mL (≈ 78.8 µM)	18.8 µg/mL (≈ 39.4 µM)
CN1C(NNC(=O)c2ccc(-c3cccc([N+](=O)[O-])c3)o2)=NS(=O)(=O)c2ccccc21	> 100 µg/mL	75 µg/mL (≈ 170 µM)	18.8 µg/mL (≈ 42.5 µM)	37.5 µg/mL (≈ 85 µM)	18.8 µg/mL (≈ 42.5 µM)
O=C(NNC1=NS(=O)(=O)c2ccccc2N1c1ccccc1)c1ccc(-c2cccc([N+](=O)[O-])c2)o1	> 100 µg/mL	150 µg/mL (≈ 298 µM)	18.8 µg/mL (≈ 37.2 µM)	37.5 µg/mL (≈ 74.5 µM)	18.8 µg/mL (≈ 37.2 µM)
CCN1C(N/N=C\c2ccc([N+](=O)[O-])s2)=NS(=O)(=O)c2ccccc21	16 µg/mL (≈ 42.2 µM)	150 µg/mL (≈ 395 µM)	18.8 µg/mL (≈ 49.4 µM)	18.8 µg/mL (≈ 49.4 µM)	18.8 µg/mL (≈ 49.4 µM)
CC(C)N1C(N/N=C\c2ccc([N+](=O)[O-])s2)=NS(=O)(=O)c2ccccc21	4 µg/mL (≈ 10.2 µM)	150 µg/mL (≈ 381 µM)	18.8 µg/mL (≈ 47.7 µM)	18.8 µg/mL (≈ 47.7 µM)	18.8 µg/mL (≈ 47.7 µM)
CN1C(N/N=C\c2ccc([N+](=O)[O-])o2)=NS(=O)(=O)c2ccccc21	8 µg/mL (≈ 22.9 µM)	150 µg/mL (≈ 429 µM)	37.5 µg/mL (≈ 107 µM)	37.5 µg/mL (≈ 107 µM)	18.8 µg/mL (≈ 53.7 µM)
CN1C(NNC(=O)c2ccc(-c3ccccc3[N+](=O)[O-])o2)=NS(=O)(=O)c2ccccc21	> 100 µg/mL	75 µg/mL (≈ 170 µM)	18.8 µg/mL (≈ 42.5 µM)	37.5 µg/mL (≈ 85 µM)	37.5 µg/mL (≈ 85 µM)
CCN1C(N/N=C\c2ccc([N+](=O)[O-])o2)=NS(=O)(=O)c2ccccc21	8 µg/mL (≈ 22 µM)	150 µg/mL (≈ 413 µM)	37.5 µg/mL (≈ 103 µM)	9.37 µg/mL (≈ 25.8 µM)	18.8 µg/mL (≈ 51.6 µM)
O=C(NNC1=NS(=O)(=O)c2ccccc2N1c1ccccc1)c1ccc([N+](=O)[O-])o1	8 µg/mL (≈ 18.7 µM)	150 µg/mL (≈ 351 µM)	37.5 µg/mL (≈ 87.7 µM)	75 µg/mL (≈ 175 µM)	18.8 µg/mL (≈ 43.9 µM)
CN1C(NNC(=O)c2ccc([N+](=O)[O-])o2)=NS(=O)(=O)c2cc(Cl)ccc21	4 µg/mL (≈ 10 µM)	150 µg/mL (≈ 375 µM)	37.5 µg/mL (≈ 93.8 µM)	18.8 µg/mL (≈ 46.9 µM)	18.8 µg/mL (≈ 46.9 µM)
O=[N+]([O-])c1ccc(/C=N\NC2=NS(=O)(=O)c3ccccc3N2c2ccccc2)o1	1 µg/mL (≈ 2.43 µM)	150 µg/mL (≈ 365 µM)	75 µg/mL (≈ 182 µM)	37.5 µg/mL (≈ 91.2 µM)	37.5 µg/mL (≈ 91.2 µM)
CCN1C(NNC(=O)c2ccc(-c3cccc([N+](=O)[O-])c3)o2)=NS(=O)(=O)c2ccccc21	> 100 µg/mL	150 µg/mL (≈ 329 µM)	75 µg/mL (≈ 165 µM)	37.5 µg/mL (≈ 82.3 µM)	75 µg/mL (≈ 165 µM)
CN1C(N/N=C\c2ccc([N+](=O)[O-])s2)=NS(=O)(=O)c2ccccc21	8 µg/mL (≈ 21.9 µM)	150 µg/mL (≈ 411 µM)	37.5 µg/mL (≈ 103 µM)	18.8 µg/mL (≈ 51.3 µM)	37.5 µg/mL (≈ 103 µM)
NNC(=O)c1ccncc1 [ISONIAZID]	0.5 µg/mL (≈ 3.65 µM)	–	–	–	–
O=C1CN(/N=C/c2ccc([N+](=O)[O-])o2)C(=O)N1 [NITROFURANTOIN]	–	150 µg/mL (≈ 630 µM)	18.8 µg/mL (≈ 78.7 µM)	18.8 µg/mL (≈ 78.7 µM)	18.8 µg/mL (≈ 78.7 µM)
CO[C@H]1/C=C/O[C@@]2(C)Oc3c(C)c(O)c4c(O)c(c(/C=N/N5CCN(C)CC5)c(O)c4c3C2=O)NC(=O)/C(C)=C\C=C\[C@H](C)[C@H](O)[C@@H](C)[C@@H](O)[C@@H](C)[C@H](OC(C)=O)[C@@H]1C [RIFAMPIN]	0.12 µg/mL (≈ 0.146 µM)	–	–	–	–
